Source: PMC12786457, “Studies on the Complexation of Platinum(II) by Some 4-Nitroisothiazoles and the Cytotoxic Activity of the Resulting Complexes” (Molecules, 2025)
Where two headings read alike, the source gives them in different places.

Assays:
[1] = test system: A549 (lung adenocarcinoma); experiment: SRB (sulforhodamine B) viability assay, A549; type: cell-based, human; settings: for IC50 ± SD, A549 (Lung), Hypoxia / IC50: SRB assay
Method: The cytotoxicity of the complexes C1–C5 was estimated by examining cell viability using the sulforhodamine B assay. […] However, due to the very poor solubility of the most polar complex C5 in acetone, its initial solution had to be prepared in polar N,N-dimethylacetamide (DMA) (see Section 3.7). Cisplatin was used as the reference drug. The results are presented as IC50 (50% inhibitory concentration), i.e., concentrations that reduce cell survival by 50%. The test was conducted on three cancer cell lines and one normal healthy cell line, namely, breast adenocarcinoma (MCF-7), ovarian adenocarcinoma (ES-2), lung adenocarcinoma (A549), and murine embryonic fibroblast (BALB/3T3).
Three solid tumor cell lines were used in this study: MCF-7 (breast adenocarcinoma), ES-2 (ovarian adenocarcinoma), and A549 (lung adenocarcinoma). The BALB/3T3 (mouse embryonic fibroblast) cell line was used as a comparative nonpathological tissue. All cell lines were purchased from the American Type Culture Collection (ATCC, Rockville, MD, USA). The preparation of cell cultures for cytotoxicity experiments is described in detail in the following article.
The initial solutions for subsequent dilutions in biological medium were prepared in a similar manner as described previously. […] The complex C5 was dissolved in the dimethylacetamide (DMA). All the initial solutions were prepared ex tempore and then were added to the culture medium 1:9 (v/v) to obtain a stock solution of 1 mg/mL.
The test was prepared and performed in the same manner as detailed in the following cited works.

[2] = Reactivity with L-glutathione (GSH), UV photometry at 260 nm; type: in vitro ADME; settings: for Half-time, t1/2 of reaction with GSH: 2 mM GSH, 10 mmol/L NaCl, 10 mmol/L Tris x HCl pH 7.4, 37 °C, UV 260 nm
Source text: Deactivation of platinum anticancer drugs occurs in the organism at both systemic and intracellular levels. After intravenous administration, these drugs undergo a series of metabolic processes, and the concentration of their active forms can be reduced by various mechanisms. At the systemic level, the first step in deactivation is plasma protein binding: Platinum drugs rapidly bind to plasma proteins (over 90%), especially albumin [32]. […] At the cellular level, platinum drugs are neutralized by binding to intracellular proteins and peptides such as glutathione and metallothionein [33]. Binding to peptide and protein thiol and thioether moieties, which are the primary binding sites for such reactions, prevents the drug from reaching DNA and may be responsible for its nephrotoxicity. As in previous studies, we assessed the susceptibility of the tested compounds to this type of inactivation in the cancer tissues by measuring the half-life of the compound in an aqueous solution containing a physiological concentration of the reduced form of glutathione (GSH) using UV photometry at a wavelength of 260 nm similarly as in Hagrman et al.. Using the same methodology allowed us to directly compare the GHS reactivity of nitroisothiazole compounds with their pyrazole and isoxazole analogues. As a control, the UV spectra of complexes C1 and C2 in dioxane were recorded to check whether there was excessive absorption at a wavelength of 260 nm, which could interfere with the measurement of the reaction of the complexes with glutathione (visualization of the UV spectra can be found in the Supplementary Materials, Figures S46 and S47).
The experiment was conducted in a similar manner to that described in previous publications. First, 30 μL of 60 mM solution of the appropriate complex (cis C1, trans C2, trans C3 and trans C4) in purified and anhydrous distilled dioxane was mixed with 3 mL of a 2 mM solution of reduced L-glutathione (GSH) in an argon-saturated medium containing 10 mmol/L NaCl and 10 mmol/L Tris x HCl buffer, pH 7.4, to achieve a final concentration of 6 µM of the tested complexes. The measurement was carried out at 37 °C. The progress of the reaction was monitored by UV absorption spectrometry at a wavelength of 260 nm. Dioxane was used to dissolve the tested Pt complexes due to the lack of UV absorption of this solvent at the used wavelength. The GSH solution was saturated with argon to remove oxygen and thus prevent oxidation of GSH with the formation of S-S bonds, which would interfere with the measurement results.

[3] = Solubility in solvents (qualitative); type: physicochemical
[4] = normoxia, read-out: IC50 ± SD, A549 (Lung), Normoxia

| Half-time, t1/2 of reaction with GSH ([2]; listed as cis-complex C1) | reaction with GSH, times faster than cisplatin ([2]; from half-times of Table 5) | Compound | IC50 ± SD, A549 (Lung), Hypoxia ([1]; hypoxia) | IC50 [1, 4] | Half-time, t1/2 of reaction with GSH [2] | IC50 ([1]; hypoxia, read-out: IC50 ± SD, A549 (Lung), Hypoxia) | selectivity index (SI), healthy cells vs A549 ([1]; ratio of cytotoxicity towards healthy BALB/3T3 cells to cytotoxicity towards A549) | solubility in acetone [3] | reaction with GSH, times faster than oxaliplatin ([2]; from half-times of Table 5) | solubility in chloroform [3] | reaction with GSH, times faster than transplatin ([2]; from half-times of Table 5) | Half-time, t1/2 of reaction with GSH ([2]; listed as trans-complex C3) |
| --- | --- | --- | --- | --- | --- | --- | --- | --- | --- | --- | --- | --- |
| 16 min | approximately three | Dichlorobis(3-methyl-4-nitroisothiazole)platinum(II) [C1] | inactive | 31.4 ± 18.8 µM | about 16 min | – | – | – | – | – | – | – |
| – | – | Cc1nscc1[N+](=O)[O-].Cc1nscc1[N+](=O)[O-].[Cl][Pt][Cl] [C2, trans-Dichlorobis(3-methyl-4-nitroisothiazole)platinum(II)] | – | 6.34 ± 1.47 µM | ~29 min | 6.52 ± 2.28 µM | 0.2 | weakly soluble | about 1.5 times | – | – | – |
| – | – | COC(=O)c1snc(C)c1[N+](=O)[O-].COC(=O)c1snc(C)c1[N+](=O)[O-].[Cl][Pt][Cl] [C4, trans-Dichlorobis(3-methyl-4-nitro-5-(methoxycarbonyl)isothiazole)platinum(II)] | inactive | 40.3 ± 19.9 µM | ~0.167 min | – | – | slightly soluble | – | very poorly soluble | 24 times | – |
| – | – | COC(=O)c1snc(C)c1[N+](=O)[O-].Cc1nscc1[N+](=O)[O-].[Cl][Pt][Cl] [C3, trans-Dichloro-3-methyl-4-nitroisothiazole 3-Methyl-4-nitro-5-(methoxycarbonyl)isothiazole Platinum(II)] | inactive | 5.74 ± 0.65 µM | about 20 s | – | – | slightly soluble | – | very poorly soluble | 12 times | 0.333 min |
